{"source": "patent US20220409696A1", "about": "“Heparin-Associated Polypeptides and Uses Thereof” (Juvena Therapeutics, Inc., priority 2021, published 2022)", "key": {"[1]": {"tested_on": "human myoblast cells", "test": "Differentiation of human myoblast cells, MyHC immunostaining", "format": "cell-based", "conditions": "for percentage area of MyHC compared with vehicle control: 96 hours, One-Way ANOVA Tukey; for % MyHC: 96 hours with daily media change", "description": "(§1) FIG. 1A: The suspension CHO cells were transiently transfected with the IGF2-hFcm encoding plasmid. IGF2-hFcm was affinity-purified by Protein A membrane column. The purified IGF2-hFcm was added into the culture of human myoblast cells for 96 hours. Myosin heavy chain (MyHC) was immunostained and imaged by a fluorescence microscope.\nas §1, with “1B:” for “1A:”, “IGF2-LhFc4” for “IGF2-hFcm”, “hours with daily media change.” for “hours.”\nas §1, with “2A:” for “1A:”, “HSA-L-IGF2R61A” for “IGF2-hFcm”, “hours with daily media change.” for “hours.”\nSuspension CHO cells were transiently transfected with the IGF2-hFcm encoding plasmid. After four days, the culture supernatants were collected and IGF2-hFcm was affinity-purified by Protein A membrane column. The purified IGF2-hFcm was added into the culture of human myoblast cells. Myosin heavy chain (MyHC) was immunostained and imaged by a fluorescent microscope. After quantification of the stained MyHC, the percentage area of MyHC was calculated as the percent of pixels within the field that are illuminated above background in the stained channel. […] Significance was determined by a p-value less than 0.05 by the one-way ANOVA Tukey Honest Significant Difference test."}, "[2]": {"test": "Backbone cleavage on expression from CHO cells (reducing SDS-PAGE, Western blot)", "description": "The amino acid backbone of IGF2 is cleaved when expressed from Chinese Hamster Ovary (CHO) cells (FIG. 13A) as visualized on a reducing SDS-PAGE and Western blot (FIG. 13B). The CHO cells were grown in a 37° C. incubator with a humidified atmosphere of 8% CO2 on an orbital shaker platform with a shaking speed 125 rpm to reach 4E6 cells/mL, followed by transferring the calculated volume of cells to fresh, pre-warmed ExpiCHO™ Expression Medium in a shake flask. Incubated flasks in a 37° C. incubator with a humidified atmosphere of 8% CO2 shook on an orbital shaker platform until cultures reached a density of 4×106-6×10^6 viable cells/mL. After mixing each plasmid with 100 ul SFM in a microtube; ExpiFectamine (8 ul×10.5=84 ul) with OptiPro medium (92 ul×10.5=966 ul) in a microtube; adding 100 ul into the plasmid tube and mix by pipetting; After 5 min, add 200 ul into each well and swirl to mix. mix enhancer (15×10.2=153 ul) with feed (600×10.2=6.12 ml), add 615 ul into each well. Culture supernatant collected at intervals was spun down at low speed and high speed, then frozen at −80 deg. Aliquots were analyzed for protein concentration by nanodrop, and then an equivalent amount loaded onto 4-12% SDS-PAGE gels for molecular weight distribution analysis. […]"}, "[3]": {"tested_on": "human myoblast cells", "test": "Human myoblast differentiation (% eMyHC area), IGF2 and/or sodium butyrate", "format": "cell-based", "description": "Human myoblast cells were treated with either PBS (vehicle), IGF2 (15 ng/mL), sodium butyrate, or IGF2 and sodium butyrate. Fresh media was added every 24 hours. After 96 hours, cells were pulsed for 2-5 hours with EdU (30 uM), ethanol fixed, stained with Hoescht 3342, immunostained for proliferation—as measured by the percent of cells staining positive for EdU (% EdU)-, and immunostained for differentiation—as measured by the increase in cellular area staining positive for embryonic myosin heavy chain (% eMyHC) relative to the negative controls, which received media and vehicle only. The total area of eMyHc positive cells was analyzed, and treated cells were compared to cells treated with the vehicle alone. […] Significance was determined by a p-value less than 0.05 by the one-way ANOVA Tukey Honest Significant Difference test.\nFIG. 3C Bar graph quantitation of % Area eMyHC+ human myoblast in response to indicated treatment compared to IGF2 (15 ng/mL). Myoblast were cultured 96 h in the presence of IGF2 at indicated dose. Fresh media and IGF2 was added every 24 h.\nHuman myoblast cells were treated with either PBS (vehicle), IGF2 (15 ng/mL), sodium butyrate, or IGF2 and sodium butyrate. Fresh media was added every 24 hours. After 48 hours, cells were pulsed for 2-5 hours with EdU (30 uM), ethanol fixed, stained with Hoescht 3342, immunostained for proliferation […] as measured by the percent of cells staining positive for EdU (% EdU)-, and immunostained for differentiation—as measured by the increase in cellular area staining positive for embryonic myosin heavy chain (% eMyHC) relative to the negative controls, which received media and vehicle only.\nSignificance was determined by a p-value less than 0.05 by the one-way ANOVA Tukey Honest Significant Difference test."}, "[4]": {"tested_on": "Mouse myoblasts", "test": "Mouse myoblast fusion index with sodium butyrate", "format": "cell-based", "conditions": "48 h", "description": "Mouse myoblasts were treated with PBS or sodium butyrate at concentrations 0.1 nM, 1 nM, and 10 nM. Myoblasts were cultured for 48 hours, with fresh media added every 24 hours. Cells were pulsed for 2-5 hours with EdU (30 uM), ethanol fixed, stained with Hoescht 3342, immunostained for proliferation—as measured by the percent of cells staining positive for EdU (% EdU)-, and immunostained for differentiation—as measured by the increase in cellular area staining positive for embryonic myosin heavy chain (% eMyHC) relative to the negative controls, which received media and vehicle only. […] Significance was determined by a p-value less than 0.05 by the one-way ANOVA Tukey Honest Significant Difference test.\nFIG. 3A: Bar graph of fusion index in response to sodium butyrate (NaBut) compared to vehicle. Myoblast were cultured 48 h in the presence of NaBut at indicated dose. Fresh media and NaBut were added every 24 h. Mean∓S.D. Table with quantitation of fusion index and p-values also shown. (*p<0.05 by Student's Two-tailed T-test, n=3−5)"}, "[5]": {"tested_on": "DM1 human myoblast", "test": "Gene expression fold change in DM1 human myoblast", "format": "cell-based", "conditions": "48 h; BMP7 50 ng/mL, Butyrate 100 nM, IGF2 200 ng/mL", "description": "Myoblasts were cultured 48 h in the presence of factors (BMP7 50 ng/mL, Butyrate 100 nM, IGF2 200 ng/mL).\nMyoblasts were cultured 96 h in the presence of factors (IGF2 200 ng/mL). […] Myoblasts were cultured 48 h in the presence of factors (IGF2 200 ng/mL).\nRNA was isolated from each well (RNeasy Mini Kit, Qiagen) and cDNA was obtained by reverse-transcription (High Capacity Reverse Transcription Kit, Thermo Fisher Scientific). Real-time quantitative PCR was performed using QuantStudio3 (Thermo Fisher).\nIGF2 was tested individually for its ability to promote proliferation and/or fusion of human muscle progenitor cells from an individual with myotonic dystrophy type 1 (hMD)—a muscular dystrophy caused by mutations in the DMPK1 gene. The effect of IGF2 on myogenic activity was assayed in biological triplicate across a range of concentrations centered around expected physiological levels by adding each factor to hMD myoblasts for 72 hours with daily media changes (DMEM+2% horse serum) and a second pulse of factors at the first media change. After 72 or 96 hours, cells were pulsed for 2-5 hours with EdU (30 uM), ethanol fixed, stained with Hoescht 3342, immunostained for proliferation—as measured by the percent of cells staining positive for EdU (% EdU)-, and immunostained for differentiation—as measured by the increase in cellular area staining positive for embryonic myosin heavy chain (% eMyHC) relative to the negative controls, which received media and vehicle only. Wells were imaged on a Keyence BZ-100 at 4×, the images quantified in Cell Profiler, and the statistics were computed in R. Additionally, RNA was extracted from myoblast and select transcript abundances quantified by qPCR."}, "[6]": {"tested_on": "human DM1 muscle precursors from person", "test": "In vitro myogenesis assay, human DM1 muscle precursors", "format": "cell-based", "conditions": "equimolar concentrations across a range of concentrations", "description": "(§2) Human muscle progenitor cells (early passage myoblasts) were cultured and expanded in growth medium: Ham's F-10 (Gibco), 20% Bovine Growth Serum (Hyclone), 5 ng/mL FGF2 and 1% penicillin-streptomycin on Matrigel coated plates (1:300 matrigel: PBS), at 37° C. and 5% CO2. For experimental conditions, cells were plated at 40,000 cells/well on Matrigel coated 8-well chamber slides in 250-500 μL medium per well (1:100 matrigel: PBS) in human fusion medium: DMEM (Gibco)+2% horse serum (Hyclone). One hour after plating, human myoblasts were treated with 50% respective media: […] were cultured for 24 hours in the above conditions, at 37° C. in 10% CO2 incubator. BrdU (300 μM) in DMSO was added for 2 hours prior to fixation with cold 70% ethanol and stored at 4° C. until staining.\n(§3) Following permeabilization in PBS+0.25% Triton X-100, antigen retrieval was performed. Primary staining was performed with primary antibodies including: a species-specific monoclonal antibody for mouse anti-embryonic Myosin Heavy Chain (eMyHC, hybridoma clone 1.652, Developmental Studies Hybridoma Bank) and Rat-anti-BrdU (Abcam Inc. ab6326). […]"}, "[7]": {"tested_on": "healthy human muscle precursors from person", "test": "In vitro myogenesis assay, healthy human muscle precursors", "format": "cell-based", "description": "as §2, §3"}, "[8]": {"target": "rhIGFBP3 (Homo sapiens, UniProt P17936)", "sequence (P17936 28-291)": "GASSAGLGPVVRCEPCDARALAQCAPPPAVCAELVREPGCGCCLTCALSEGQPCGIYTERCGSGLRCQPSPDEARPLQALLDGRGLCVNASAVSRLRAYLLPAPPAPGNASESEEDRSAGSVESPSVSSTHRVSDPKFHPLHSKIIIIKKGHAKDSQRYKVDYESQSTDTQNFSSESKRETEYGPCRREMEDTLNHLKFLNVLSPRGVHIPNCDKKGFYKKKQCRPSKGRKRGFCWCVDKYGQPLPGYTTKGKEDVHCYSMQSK", "test": "Interaction with rhIGFBP3 by size exclusion chromatography (HPLC)", "format": "binding", "conditions": "1:1 stoichiometric mixture", "from_the_text": "In physiological conditions IGF2 will bind IGF binding proteins (IGFBPs). The purpose of this study was to determine if mutant sequences of IGF2 interact with IGFBPs. Retention time across a size exclusions chromatography column is proportional to the size of the molecule. Thus molecular interactions can be ascertained by a corresponding change in retention time on a size exclusions chromatography column."}, "[9]": {"test": "Pharmacokinetics after intravenous injection in mice", "format": "in vivo", "description": "Murine pharmacokinetics (PK) represents the absorption, distribution, metabolism, and elimination of drugs from the body. The pharmacokinetic profile of the therapeutic polypeptides were determined in mice (10-12 weeks old). Mice were fed ad libitum and housed under controlled conditions of lighting (12-hour light/12-hour dark) and temperature (22-24° C.). Mice were allowed to acclimate for 3 days prior to the initiation of the experiment. Intravenous (IV) injection in 10-12 weeks old mice. Engineered mitogenic polypeptides concentrations in the samples were measured by ELISA. Various pharmacokinetics will be calculated as well as the absorption/elimination dynamics following different routes of administration."}}}
{"compound": "IGF2-LhFc4: Human IGF2-linker3-hFc4 (human IgG4 Fc with S228P), SEQ ID NO 38", "values": [{"measurement": "percentage area of MyHC compared with vehicle control", "setting": "[1]", "value": "significantly higher"}, {"measurement": "% MyHC", "setting": "[1]; FIG. 1B, Example 3", "value": 6.237, "unit": "%"}]}
{"compound": "HSA-IGF2: His tagged HSA fusion IGF2 with a long linker, SEQ ID NO 33", "values": [{"measurement": "cleavage of the amino acid backbone when expressed from CHO cells", "setting": "[2]", "value": "cleaved"}, {"measurement": "% MyHC", "setting": "[1]; FIG. 2A, Example 4", "value": 7.079, "unit": "%"}]}
{"compound": "hFc4L-IGF2: hFc4-linker3-human IGF2, SEQ ID NO 40", "values": [{"measurement": "% MyHC", "setting": "[1]; FIG. 1B, Example 3", "value": 5.820, "unit": "%"}]}
{"compound": "CCCC(=O)[O-].[Na+]", "note": "[NaBut, sodium butyrate]", "values": [{"measurement": "% eMyHC", "setting": "[3]; NaBut 1 nM, 96 h (FIG. 3B)", "value": 2.321, "unit": "%"}, {"measurement": "% eMyHC", "setting": "[3]; NaBut 1 nM, after 48 hours (FIG. 4A)", "value": 2.321, "unit": "%"}, {"measurement": "% eMyHC", "setting": "[3]; NaBut 10 nM, 96 h (FIG. 3B)", "value": 6.199, "unit": "%"}, {"measurement": "% eMyHC", "setting": "[3]; NaBut 10 nM, after 48 hours (FIG. 4A)", "value": 6.199, "unit": "%"}, {"measurement": "% eMyHC", "setting": "[3]; NaBut 100 nM, 96 h (FIG. 3B)", "value": 8.341, "unit": "%"}, {"measurement": "% eMyHC", "setting": "[3]; NaBut 100 nM, after 48 hours (FIG. 4A)", "value": 8.341, "unit": "%"}, {"measurement": "Fusion Index (nuclei/myotube)", "setting": "[4]; NaBut 0.1 nM", "value": 8.44, "unit": "nuclei/myotube"}, {"measurement": "Fusion Index (nuclei/myotube)", "setting": "[4]; NaBut 1 nM", "value": 31.60, "unit": "nuclei/myotube"}, {"measurement": "Fusion Index (nuclei/myotube)", "setting": "[4]; NaBut 1 nM, listed as sodium butyrate", "value": "increased rates of fusion"}, {"measurement": "Fusion Index (nuclei/myotube)", "setting": "[4]; NaBut 10 nM", "value": 14.00, "unit": "nuclei/myotube"}, {"measurement": "MYF5 myogenic gene expression fold change compared to FM (vehicle)", "setting": "[5]", "value": 1.128}, {"measurement": "MYODI myogenic gene expression fold change compared to FM (vehicle)", "setting": "[5]", "value": 1.095}, {"measurement": "MYOG myogenic gene expression fold change compared to FM (vehicle)", "setting": "[5]", "value": 1.020}]}
{"compound": "HSA-IGF2R61A: His tagged HSA fusion IGF2 R61A mutant with a long linker, SEQ ID NO: 34", "values": [{"measurement": "myogenic activity relative to IGF2", "setting": "[6]", "value": "equal activity"}, {"measurement": "myogenic activity relative to IGF2", "setting": "[7]; equimolar concentrations across a range of concentrations", "value": "equal activity"}, {"measurement": "myogenic activity relative to HSA-IGF2", "setting": "[7]; equimolar concentrations, before or after size exclusion purification via HPLC", "value": "equal or increased activity"}, {"measurement": "interaction with rhIGFBP3 (mass shift in size exclusion chromatography)", "setting": "[8]", "value": "preserved affinity"}, {"measurement": "serum half-life compared to the natural sequence of IGF2", "setting": "[9]; mice", "value": "significantly improved"}, {"measurement": "Half-life", "setting": "[9]; mice 10-12 weeks old, dose 10 mg/kg (HSA-IGF2R61A), 600 ug/kg (IGF2), Non-Compartment Analysis", "value": 20.81, "unit": "h"}, {"measurement": "percentage area of MyHC compared with vehicle control", "setting": "[1]", "value": "significantly higher"}, {"measurement": "% MyHC", "setting": "[1]; FIG. 2A, Example 4", "value": 6.914, "unit": "%"}]}
{"compound": "IGF2-hFc4: Human IGF2-hFc4, SEQ ID NO 39", "values": [{"measurement": "% MyHC", "setting": "[1]; FIG. 1B, Example 3", "value": 6.901, "unit": "%"}]}
